Experimental data reported in patent publication US20240293384A1, “METHODS AND COMPOSITIONS FOR TREATMENT OF COVID-19” (priority 2021, published 2024).

Key:
SARS-CoV-2 [1] = format: cell-based, SARS-CoV-2 (Seattle strain)
tubulin network = test: mRNA sequencing and IPA analysis of SARS-CoV-2-infected neurons; format: cell-based, human; settings: neurons infected with virus for 24 hours, treated vs vehicle (DMSO)
SARS-CoV-2 [2] = format: cell-based
Calu3 cells = test: RNAseq of infected Calu3 cells, DEG reversal z-score analysis; format: cell-based, human; settings: overlapping genes with FDR<10%

SMILES	SARS-CoV-2 levels determined by qPCR for Spike mRNA (SARS-CoV-2 [1])	expression of tubulins in mRNAseq (IPA Coronavirus Replication Pathway) (tubulin network)	viral RNA levels (qPCR, Spike RNA) (SARS-CoV-2 [2])	restoration of gene expression of infected cells to uninfected levels (log 2 fold change z-scores) (Calu3 cells)
O=[N+]([O-])c1ccc(Sc2nnc(COc3ccccc3)n2-c2ccccc2)nc1 [MIND4-17, 5-Nitro-2-{[5-(phenoxymethyl)-4-phenyl-4H-1,2,4-triazol-3-yl]thio}pyridine]	dramatic reduction in Spike transcripts	downregulated		
O=[N+]([O-])c1ccc(Sc2nnc(COc3ccccc3)n2-c2ccccc2)c2ncccc12 [MIND4]			dramatic reduction in viral RNA levels	significant restoration back to uninfected state
